Experiments:
Format in all cases: cell-based
T98G = assay: CCK-8 cell viability assay, T98G; details: CCK-8, 72 h, mean ± SD of three independent experiments
Description: (§1) The U87MG cell line (catalogue iCell-h224) and U251MG cell line (catalogue iCell-h219) were purchased from iCell Bioscience Inc (Shanghai) cell bank. T98G cell line was obtained from Yining Zhang’s group. All cells were cultured in DMEM supplemented with 10% (v/v) FBS and penicillin-streptomycin in a humidified incubator at 37 °C under 5% CO2. The different compounds were dissolved in DMSO at the concentration of 10 mM and diluted in serum-free medium. The GBM cells were seeded into 96-well microplates at the density of 6000 cells/well and incubated for 24 h. Fresh media supplemented with different concentrations of the compounds were added, and the cells were cultured for 72 h. The CCK-8 reagent (TargetMol, C0005) was added to each well and the cells were incubated for 4 h at 37 °C. […] the absorbance was measured at […] using a microplate reader (Genios Tecan). An untreated control group was included and its viability was set as 100%. IC50 value of the two probes was calculated using GraphPad Prism 5.0.

U87 = assay: CCK-8 cell viability assay, U87; details: CCK-8, 72 h, mean ± SD of three independent experiments
Description: as §1

U251 = assay: CCK-8 cell viability assay, U251; details: CCK-8, 72 h, mean ± SD of three independent experiments
Description: as §1

LO2 = assay: CCK-8 cytotoxicity, normal human cell line LO2
[1] = L02, mean ± SD of three independent experiments

| Compound | IC50 (U87; Homo sapiens, U-87 MG, 72 h) [µM] | IC50 (U251; Homo sapiens, U-251, 72 h) [µM] | IC50 (U87) [µM] | IC50 (U251) [µM] | IC50 (T98G; Homo sapiens, T98G, 72 h) [µM] | IC50 (LO2; [1]) [µM] | IC50 (T98G) [µM] | IC50 (LO2; mean ± SD of three independent experiments) [µM] |
| --- | --- | --- | --- | --- | --- | --- | --- | --- |
| CN1C(=O)C(=Cc2ccc(O)c(Cl)c2)SC1=NN=CC1=CCC2CC1C2(C)C (stereo not shown) [C10, 5–(3-Chloro-4-hydroxybenzylidene)-2-(((6,6-dimethylbicyclo[3.1.1]hept-2-en-2-yl)methylene)hydrazineylidene)-3-methylthiazolidin-4-one] | 9.86 ± 0.09 | 8.29 ± 0.78 | – | – | 8.69 ± 0.17 | > 50 | – | – |
| CCN(CC)c1ccc(C=C2SC(=NN=CC3=CCC4CC3C4(C)C)N(C)C2=O)cc1 (stereo not shown) [C8, 5–(4-(Diethylamino)benzylidene)-2-(((6,6-dimethylbicyclo[3.1.1]hept-2-en-2-yl)methylene) hydrazineylidene)-3-methylthiazolidin-4-one] | 42.2 ± 0.46 | 27.2 ± 0.62 | – | – | 38.1 ± 0.78 | > 50 | – | – |
| CN1C(=O)/C(=C\c2ccc(O)cc2F)SC1NN=CC1=CCC2CC1C2(C)C (stereo not shown) [C14, 2–(2-((6,6-Dimethylbicyclo[3.1.1]hept-2-en-2-yl)methylene)hydrazineyl)-5-((E)-2-fluoro-4-hydroxybenzylidene)-3-methylthiazolidin-4-one] | 14.4 ± 0.73 | 11.6 ± 0.89 | – | – | 14.8 ± 0.34 | > 50 | – | – |
| Cc1ccc(O)c(C=C2SC(=NN=CC3=CCC4CC3C4(C)C)N(C)C2=O)c1 (stereo not shown) [C9, 2-(((6,6-Dimethylbicyclo[3.1.1]hept-2-en-2-yl)methylene)hydrazineylidene)-5–(2-hydroxy-5-methylbenzylidene)-3-methylthiazolidin-4-one] | 34.1 ± 0.57 | 36.7 ± 0.32 | – | – | 32.11 ± 0.21 | > 50 | – | – |
| COc1ccc(C=C2SC(=NN=CC3=CCC4CC3C4(C)C)N(C)C2=O)cc1 (stereo not shown) [C2, 2-(((6,6-Dimethylbicyclo[3.1.1]hept-2-en-2-yl)methylene)hydrazineylidene)-5–(4-methoxybenzylidene)-3-methylthiazolidin-4-one] | – | – | 11.2 ± 0.26 | 14 ± 0.71 | – | – | 10.1 ± 0.8 | > 50 |
| COc1ccc(C=C2SC(=NN=CC3=CCC4CC3C4(C)C)N(C)C2=O)cc1O (stereo not shown) [C11, 2-(((6,6-Dimethylbicyclo[3.1.1]hept-2-en-2-yl)methylene)hydrazineylidene)-5–(3-hydroxy-4-methoxybenzylidene)-3-methylthiazolidin-4-one] | 13.6 ± 0.21 | 14.8 ± 0.1 | – | – | 12 ± 0.15 | > 50 | – | – |
| COc1ccc(C=C2SC(=NN=CC3=CCC4CC3C4(C)C)N(C)C2=O)cc1 (stereo not shown) [C1, 2-(((6,6-Dimethylbicyclo[3.1.1]hept-2-en-2-yl)methylene)hydrazineylidene)-5–(4-methoxybenzylidene)-3-methylthiazolidin-4-one] | 13.5 ± 0.43 | 12.1 ± 0.31 | – | – | 9.93 ± 0.11 | > 50 | – | – |
| CN1C(=O)C(=Cc2ccc(Cl)cc2)SC1=NN=CC1=CCC2CC1C2(C)C (stereo not shown) [C7, 5–(4-Chlorobenzylidene)-2-(((6,6-dimethylbicyclo[3.1.1]hept-2-en-2-yl)methylene) hydrazineylidene)-3-methylthiazolidin-4-one] | > 50 | 36.8 ± 0.43 | – | – | 33.4 ± 0.77 | > 50 | – | – |
| CSc1ccc(C=C2SC(=NN=CC3=CCC4CC3C4(C)C)N(C)C2=O)cc1 (stereo not shown) [C3, 2-(((6,6-Dimethylbicyclo[3.1.1]hept-2-en-2-yl)methylene)hydrazineylidene)-3-methyl-5–(4-(methylthio)benzylidene)thiazolidin-4-one] | 12.3 ± 0.65 | 15.2 ± 0.32 | – | – | 16.7 ± 0.67 | > 50 | – | – |

Now from value to compound, other results behind:

| IC50 (U87; Homo sapiens, U-87 MG, 72 h) [µM] | IC50 (U251; Homo sapiens, U-251, 72 h) [µM] | IC50 (U87) [µM] | IC50 (U251) [µM] | Compound | IC50 (T98G; Homo sapiens, T98G, 72 h) [µM] | IC50 (LO2; [1]) [µM] | IC50 (T98G) [µM] | IC50 (LO2; mean ± SD of three independent experiments) [µM] |
| --- | --- | --- | --- | --- | --- | --- | --- | --- |
| 9.12 ± 0.43 | 9.01 ± 0.34 | – | – | Cc1cc(O)ccc1/C=C1/SC(NN=CC2=CCC3CC2C3(C)C)N(C)C1=O (stereo not shown) [C15, 2–(2-((6,6-Dimethylbicyclo[3.1.1]hept-2-en-2-yl)methylene)hydrazineyl)-5-((E)-4-hydroxy-2-methylbenzylidene)-3-methylthiazolidin-4-one] | 7.63 ± 0.65 | > 50 | – | – |
| 9.18 ± 0.2 | 6.23 ± 0.41 | – | – | COc1cc(O)ccc1/C=C1/SC(NN=CC2=CCC3CC2C3(C)C)N(C)C1=O (stereo not shown) [C17, 2–(2-((6,6-Dimethylbicyclo[3.1.1]hept-2-en-2-yl)methylene)hydrazineyl)-5-((E)-4-hydroxy-2-methoxybenzylidene)-3-methylthiazolidin-4-one] | 5.1 ± 0.26 | > 50 | – | – |
| 5.83 ± 0.56 | 7.14 ± 0.11 | – | – | Cc1cc(/C=C2/SC(NN=CC3=CCC4CC3C4(C)C)N(C)C2=O)ccc1O (stereo not shown) [C16, 2–(2-((6,6-Dimethylbicyclo[3.1.1]hept-2-en-2-yl)methylene)hydrazineyl)-5-((E)-4-hydroxy-3-methylbenzylidene)-3-methylthiazolidin-4-one] | 6.63 ± 0.32 | > 50 | – | – |
| 5.71 ± 0.23 | 6.65 ± 0.75 | – | – | COc1ccc(C=C2SC(=NN=CC3=CCC4CC3C4(C)C)N(C)C2=O)c(O)c1 (stereo not shown) [C13, 2-(((6,6-Dimethylbicyclo[3.1.1]hept-2-en-2-yl)methylene)hydrazineylidene)-5–(2-hydroxy-4-methoxybenzylidene)-3-methylthiazolidin-4-one] | 5.54 ± 0.98 | > 50 | – | – |
| 9.37 ± 0.43 | 10.2 ± 0.65 | – | – | COc1cc(C=C2SC(=NN=CC3=CCC4CC3C4(C)C)N(C)C2=O)ccc1O (stereo not shown) [C6, 2-(((6,6-Dimethylbicyclo[3.1.1]hept-2-en-2-yl)methylene)hydrazineylidene)-5–(4-hydroxy-3-methoxybenzylidene)-3-methylthiazolidin-4-one] | 7.5 ± 0.98 | > 50 | – | – |
| 9.37 ± 0.35 | 8.01 ± 0.79 | – | – | CCOc1cc(C=C2SC(=NN=CC3=CCC4CC3C4(C)C)N(C)C2=O)ccc1O (stereo not shown) [C12, 2-(((6,6-Dimethylbicyclo[3.1.1]hept-2-en-2-yl)methylene)hydrazineylidene)-5–(3-ethoxy-4-hydroxybenzylidene)-3-methylthiazolidin-4-one] | 7.1 ± 0.51 | > 50 | – | – |
| 7.56 ± 0.76 | 9.7 ± 0.64 | – | – | CN1C(=O)C(=Cc2ccc(N(C)C)cc2)SC1=NN=CC1=CCC2CC1C2(C)C (stereo not shown) [C4, 5–(4-(Dimethylamino)benzylidene)-2-(((6,6-dimethylbicyclo[3.1.1]hept-2-en-2-yl)methylene)hydrazineylidene)-3-methylthiazolidin-4-one] | 8.8 ± 0.31 | > 50 | – | – |
